The results in this text go back to patent US6362369B1, “Phthalic acid diamide derivatives fluorine-containing aniline compounds as starting material, agricultural and horticultural insecticides, and a method for application of the insecticides” (Nihon Nohyaku Co., Ltd., priority 1997, dated 2002).

SMILES strings stand for the structures.

Common to all, as to format: in vivo
The test system of test [1] is diamondback moth (Plutella xylostella). The test is described as follows: Insecticidal effect on diamondback moth (Test Example 1). Particulars: for Insecticidal effect, Test Example 1 / Insecticidal effect (Test Example 1), judged from mortality: diamondback moth; for Insecticidal effect (Test Example 1), judged from mortality: judged by the criterion of Test Example 1; for Insecticidal effect on diamondback moth (Test Example 1), judged grade: mortality judged according to the criterion shown in Test Example 1. The procedure, abridged: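 Eggs laid by adult moths on Chinese cabbage seedlings, which were immersed in test solution, air-dried and kept at 25 °C. Hatched insects counted 6 days after immersion and mortality calculated, with effect graded by criterion; triplicate groups of 10 insects.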

Test [2] concerns common cutworm (Spodoptera Litura). Kind of test: Insecticidal effect on common cutworm (Test Example 2). Particulars: 500 ppm, 25° C.; for Insecticidal effect, Test Example 2: cabbage leaf immersed; for Insecticidal effect, Test Example 2 / Insecticidal effect on common cutworm (Test Example 2), judged grade: eight days after inoculation; for Insecticidal effect (Test Example 2), judged from mortality / Insecticidal effect on common cutworm (Test Example 2), judged grade: cabbage leaf dip; for Insecticidal effect (Test Example 2), judged from mortality: 8 days after inoculation; for Insecticidal effect on common cutworm (Test Example 2), judged grade: second-instar larvae. The procedure, abridged:
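After the treated material air-dries, it goes into a dish, second-instar larvae are added, and the dish is closed. Incubation runs at 25° C. On day eight, dead and living larvae are scored, and the calculated mortality is rated on an effect scale.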

Test [3] has as its system rice leafroller (Cnaphalocrocis medinalis). Kind of test: Insecticidal effect on rice leafroller (Test Example 3). Particulars: 500 ppm, 25° C., humidity 70%; for Insecticidal effect, Test Example 3: rice lamina immersed; for Insecticidal effect, Test Example 3 / Insecticidal effect on rice leafroller (Test Example 3), judged grade: four days after inoculation; for Insecticidal effect (Test Example 3), judged from mortality / Insecticidal effect on rice leafroller (Test Example 3), judged grade: rice lamina dip; for Insecticidal effect (Test Example 3), judged from mortality: 4 days after inoculation; for Insecticidal effect on rice leafroller (Test Example 3), judged grade: third-instar larvae. A digest of the protocol:
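Groups of 10 third-instar larvae, in triplicate, are placed on air-dried lamina resting on wet filter paper. Incubation runs four days at 25° C with 70% humidity before survivors and dead are tallied.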

The mark [4] stands for this setting: judged by the mortality criterion of Test Example 1.
Where [5] appears, read: second-instar larvae of common cutworm.
[6] abbreviates: third-instar larvae of rice leafroller.
[7] abbreviates: mortality judged by criterion of Test Example 1.
Setting [8] is: common cutworm second-instar larvae.
Where [9] appears, read: rice leafroller third-instar larvae.

With `Cc1cc(C(F)(F)C(F)(F)C(F)(F)C(F)(F)F)ccc1NC(=O)c1cccc(I)c1C(=O)NC(C)C` [compound 375], the “Insecticidal effect, Test Example 1” value in test [1] (setting [4]) was “A (100)”. Further, the “Insecticidal effect, Test Example 2” value in test [2] (setting [5]) is “A (100)”. For the same compound, the “Insecticidal effect, Test Example 3” value in test [3] (setting [6]) is reported as “A (100)”.

Take `CCNC(=O)c1c(Cl)cccc1C(=O)Nc1ccc(OC(F)F)cc1C` [compound 8]: in test [1] (setting [4]), the “Insecticidal effect, Test Example 1” value is “A (100)”. The “Insecticidal effect, Test Example 2” value in test [2] (setting [5]) is listed as “A (100)”. In test [3] (setting [6]), the “Insecticidal effect, Test Example 3” value is reported as “A (100)”.

Consider `CC(C)(C)NC(=O)c1c(Cl)cccc1C(=O)Nc1ccc(C(F)(F)C(F)(F)F)cc1F` [compound 1448], for which, in test [1], the “Insecticidal effect (Test Example 1), judged from mortality” value is recorded as “A (100)”. Further, the “Insecticidal effect (Test Example 2), judged from mortality” value in test [2] (setting [5]) is reported as “A (100)”. Also, in test [3] (setting [6]), the “Insecticidal effect (Test Example 3), judged from mortality” value was “A (100)”.

For the compound `Cc1cc(C(F)(F)C(F)(F)C(F)(F)F)ccc1NC(=O)c1cccc(F)c1C(=O)NC(C)C` [compound 496], in test [1], the “Insecticidal effect on diamondback moth (Test Example 1), judged grade” value (“Insecticidal effect on diamondback moth” for short) is given as “A (100)”. In addition, in test [2], the “Insecticidal effect on common cutworm (Test Example 2), judged grade” value (from here on “Insecticidal effect on common cutworm”) is recorded as “A (100)”. Also, the “Insecticidal effect on rice leafroller (Test Example 3), judged grade” value (“Insecticidal effect on rice leafroller” below) in test [3] was “A (100)”.

As for `Cc1c(NC(=O)c2cccc(Br)c2C(=O)NC(C)C)ccc(OC(F)F)c1Cl` [compound 294], in test [1] (setting [4]), the “Insecticidal effect, Test Example 1” value is listed as “A (100)”. In addition, the “Insecticidal effect, Test Example 2” value in test [2] (setting [5]) was “A (100)”. In addition, in test [3] (setting [6]), the “Insecticidal effect, Test Example 3” value is reported as “A (100)”.

Consider `Cc1ccc(Cl)cc1NC(=O)c1cccc([N+](=O)[O-])c1C(N)=O` [compound 1], for which the “Insecticidal effect, Test Example 1” value in test [1] (setting [4]) is “D (79-50)”. Moreover, the “Insecticidal effect, Test Example 2” value in test [2] (setting [5]) was “D (79-50)”. Further, the “Insecticidal effect, Test Example 3” value in test [3] (setting [6]) was “A (100)”.

Consider `CCC(CO)NC(=O)c1ccccc1C(=O)Nc1ccc(C(F)(F)C(F)(F)F)cc1C` (stereo not drawn) [compound 1299], for which the “Insecticidal effect, Test Example 1” value in test [1] (setting [7]) was “A (100)”. Also, the “Insecticidal effect, Test Example 2” value in test [2] (setting [8]) is listed as “A (100)”. In addition, the “Insecticidal effect, Test Example 3” value in test [3] (setting [9]) is recorded as “A (100)”.

`CCN(CC)C(=O)c1c(I)cccc1C(=O)Nc1ccc(C(O)(C(F)(F)F)C(F)(F)F)cc1` [compound 1130]: the “Insecticidal effect, Test Example 1” value in test [1] (setting [7]) is on record as “A (100)”. Also, in test [2] (setting [8]), the “Insecticidal effect, Test Example 2” value is listed as “A (100)”. Besides, the “Insecticidal effect, Test Example 3” value in test [3] (setting [9]) is on record as “A (100)”.

With `CC(C)NC(=O)c1cccc(Cl)c1C(=O)Nc1ccc(Cl)cc1F` [compound 212], the “Insecticidal effect, Test Example 1” value in test [1] (setting [4]) is “A (100)”. In addition, in test [2] (setting [5]), the “Insecticidal effect, Test Example 2” value was “D (79-50)”. Besides, the “Insecticidal effect, Test Example 3” value in test [3] (setting [6]) is “A (100)”.

For `C=CC(C)(C)NC(=O)c1c(Cl)cccc1C(=O)Nc1ccc(C(F)(F)C(F)(F)F)cc1C` [compound 1569], in test [1], the “Insecticidal effect (Test Example 1), judged from mortality” value is given as “A (100)”. Besides, the “Insecticidal effect (Test Example 2), judged from mortality” value in test [2] (setting [5]) is reported as “A (100)”. Also, the “Insecticidal effect (Test Example 3), judged from mortality” value in test [3] (setting [6]) was “A (100)”.

For `CC(C)NC(=O)c1cc(Cl)ccc1C(=O)Nc1ccc(OC(F)(F)F)cc1` [compound 172], the “Insecticidal effect, Test Example 1” value in test [1] (setting [4]) was “A (100)”. Further, in test [2] (setting [5]), the “Insecticidal effect, Test Example 2” value is “A (100)”. Also, the “Insecticidal effect, Test Example 3” value in test [3] (setting [6]) is “D (79-50)”.

For `CC(C)(C)NC(=O)c1c(Cl)cccc1C(=O)Nc1ccc(C(F)(F)C(F)(F)C(F)(F)F)cc1F` [compound 1496], in test [1], the “Insecticidal effect (Test Example 1), judged from mortality” value was “A (100)”. In addition, the “Insecticidal effect (Test Example 2), judged from mortality” value in test [2] (setting [5]) was “A (100)”. The “Insecticidal effect (Test Example 3), judged from mortality” value in test [3] (setting [6]) is “A (100)”.

Take `CCNC(=O)c1c(I)cccc1C(=O)Nc1ccc(C(F)(C(F)(F)F)C(F)(F)F)cc1C` [compound 1073]: in test [1] (setting [7]), the “Insecticidal effect, Test Example 1” value was “A (100)”. Besides, the “Insecticidal effect, Test Example 2” value in test [2] (setting [8]) is reported as “A (100)”. Further, the “Insecticidal effect, Test Example 3” value in test [3] (setting [9]) is “A (100)”.

As for `Cc1cc(OCC(F)(F)C(F)F)ccc1NC(=O)c1cccc([N+](=O)[O-])c1C(=O)NC(C)C` [compound 699], in test [1], the “Insecticidal effect on diamondback moth” value is given as “A (100)”. The “Insecticidal effect on common cutworm” value in test [2] is “A (100)”. Moreover, in test [3], the “Insecticidal effect on rice leafroller” value is listed as “D (79-50)”.

Consider `Cc1cc(OC(F)(F)C(F)(Cl)Cl)ccc1NC(=O)c1cccc([N+](=O)[O-])c1C(=O)NC(C)C` [compound 715], for which the “Insecticidal effect on diamondback moth” value in test [1] is on record as “A (100)”. Also, the “Insecticidal effect on common cutworm” value in test [2] is given as “A (100)”. The “Insecticidal effect on rice leafroller” value in test [3] is reported as “A (100)”.

On to `Cc1cc(OC(F)F)ccc1NC(=O)c1cccc(I)c1C(=O)NC1CC1` [compound 1452], for which, in test [1], the “Insecticidal effect (Test Example 1), judged from mortality” value is given as “A (100)”. Also, the “Insecticidal effect (Test Example 2), judged from mortality” value in test [2] (setting [5]) was “A (100)”. Also, in test [3] (setting [6]), the “Insecticidal effect (Test Example 3), judged from mortality” value is “A (100)”.

Regarding `CCCNC(=O)c1c(I)cccc1C(=O)Nc1ccc(C(F)(F)C(F)(F)C(F)(F)F)cc1F` [compound 1524], the “Insecticidal effect (Test Example 1), judged from mortality” value in test [1] was “A (100)”. Moreover, the “Insecticidal effect (Test Example 2), judged from mortality” value in test [2] (setting [5]) is given as “A (100)”. In test [3] (setting [6]), the “Insecticidal effect (Test Example 3), judged from mortality” value is given as “A (100)”.

With `CCc1cc(OC(F)(F)F)ccc1NC(=O)c1cccc(Cl)c1C(=O)NC(C)C` [compound 1209], the “Insecticidal effect, Test Example 1” value in test [1] (setting [7]) was “A (100)”. Further, the “Insecticidal effect, Test Example 2” value in test [2] (setting [8]) is “D (79-50)”. In test [3] (setting [9]), the “Insecticidal effect, Test Example 3” value is reported as “A (100)”.

Turning to `CC(C)NC(=O)c1c(F)cccc1C(=O)Nc1ccc(C(F)(F)C(F)(F)F)cc1Cl` [compound 1516], in test [1], the “Insecticidal effect (Test Example 1), judged from mortality” value is reported as “A (100)”. Further, the “Insecticidal effect (Test Example 2), judged from mortality” value in test [2] (setting [5]) is “A (100)”. The “Insecticidal effect (Test Example 3), judged from mortality” value in test [3] (setting [6]) is given as “A (100)”.

For the compound `Cc1c(F)cccc1NC(=O)c1cccc([N+](=O)[O-])c1C(=O)NC(C)C` [compound 674], the “Insecticidal effect on diamondback moth” value in test [1] is recorded as “A (100)”. Moreover, the “Insecticidal effect on common cutworm” value in test [2] is listed as “D (79-50)”. Further, in test [3], the “Insecticidal effect on rice leafroller” value is recorded as “A (100)”.

Take `CC(C)NC(=O)c1c(Cl)cccc1C(=O)Nc1ccc(OC(F)(F)F)cc1Br` [compound 136]: in test [1] (setting [4]), the “Insecticidal effect, Test Example 1” value is recorded as “A (100)”. The “Insecticidal effect, Test Example 2” value in test [2] (setting [5]) is “A (100)”. For the same compound, the “Insecticidal effect, Test Example 3” value in test [3] (setting [6]) is “A (100)”.

With `Cc1cc(OC(F)F)ccc1NC(=O)c1cccc(Br)c1C(=O)NC(C)C` [compound 288], the “Insecticidal effect, Test Example 1” value in test [1] (setting [4]) is on record as “A (100)”. The “Insecticidal effect, Test Example 2” value in test [2] (setting [5]) was “A (100)”. In addition, the “Insecticidal effect, Test Example 3” value in test [3] (setting [6]) is “A (100)”.

Consider `CC(C)NC(=O)c1ccccc1C(=O)Nc1ccc(OC(F)F)cc1C(F)(F)F` [compound 83], for which, in test [1] (setting [4]), the “Insecticidal effect, Test Example 1” value is given as “A (100)”. For the same compound, the “Insecticidal effect, Test Example 2” value in test [2] (setting [5]) was “A (100)”. Also, the “Insecticidal effect, Test Example 3” value in test [3] (setting [6]) was “A (100)”.

In the case of `Cc1cc(Oc2ncc(C(F)(F)F)cc2Cl)ccc1NC(=O)c1cccc(Cl)c1C(=O)NC(C)C` [compound 159], the “Insecticidal effect, Test Example 1” value in test [1] (setting [4]) is given as “A (100)”. The “Insecticidal effect, Test Example 2” value in test [2] (setting [5]) is “A (100)”. Also, the “Insecticidal effect, Test Example 3” value in test [3] (setting [6]) is on record as “A (100)”.

For `Cc1cc(OCC(F)(F)C(F)F)ccc1NC(=O)c1c(I)cccc1C(=O)NC(C)C` [compound 447], the “Insecticidal effect on diamondback moth” value in test [1] is “A (100)”. In addition, the “Insecticidal effect on common cutworm” value in test [2] is “B (99-90)”. Further, the “Insecticidal effect on rice leafroller” value in test [3] was “C (89-80)”.
